Data set [1] can be described thus: antipyretic activity: Brewer's yeast foot injection, foot and rectal temperatures. The note with it: rats; 200 mg/kg. The format is in vivo, male rats. The procedure:
Control animals are given 1 cc/100 g. body weight of the vehicle. The test drug animals are given 200 mg/kg. of the drug in a concentration of 2 percent. Soluble and insoluble compounds are administered orally in aqueous suspended vehicle. One hour after administration of drug, these rats are injected with 0.1 ml. of a 2 percent suspension of Brewer's yeast beneath the plantar surface of the foot. Two hours after drug injections and 1 hour after the irritant, the temperatures of the inflammed foot, the normal foot and the rectum are recorded with the help of a thermocouple. Results are reported as degrees change from controls. The temperatures are averaged for the inflamed foot, the normal foot and the rectum. The averages for the treated groups are compared with the control averages and the results noted as degrees change from control.

Data set [2] can be described thus: LD50 p.o. in mice (acute toxicity). The format is in vivo.
Data set [3] is described as follows: analgesic activity: hot plate reaction time. To be noted: mice; dose ranging from 38 mg. to about 220 mg. The format is in vivo, male mice. As to the method: The method determines the reaction time of mice dropped onto a hot plate maintained at 55±0.5° C. Six groups of male mice (5 mice/group) weighing between 20-30 grams are utilized. The initial reaction time of these mice is determined once, and the reaction time of each group is then averaged. The mice are then administered the vehicle and/or the compound to be tested by the oral, intraperitoneal or subcutaneous route. The average reaction time of each group is determined again at 30, 60 and 90 minutes after compound administration and is compared to controls. Reaction time is recorded as percent changes from control. All groups are averaged before and after treatment. A combined reaction time average (recorded as percent change of reaction time threshhold from controls) for all three periods is plotted against dose on graph paper, and a curve is drawn. The ED 50 is read from this curve.

As to `O=C(O)C1CCc2c([nH]c3ccc(Cl)cc23)C1` (stereo not drawn) [6-chloro-1,2,3,4-tetrahydrocarbazole-2-carboxylic acid], the antipyretic activity result in data set [1] was “antipyretic activity is observed”. Further, the LD50 in data set [2] is 1120 mg. Also, the analgesic activity result in data set [3] is listed as “analgesic activity is observed”.

These data come from US4009181A, “Cyclopenta[b]indole-2-carboxylic acids and derivatives thereof” (Hoffmann-La Roche Inc., priority 1974, dated 1977).
